Test results taken from patent publication US9522920B2, “Bromodomain inhibitors and uses thereof” (Constellation Pharmaceuticals, Inc., priority 2010, dated 2016).
Where two headings read alike, the source gives them in different places.

Tests used:
[1] = system: LPS-induced IL-6 production; assay: In-vivo inhibition of LPS-induced IL-6 production; set-up: species or system Balb/C mice; conditions: for ED50: Mus musculus; for ED50 (mg/kg): Table 15, oral gavage 30 min prior to LPS, plasma IL-6 ELISA two hours after LPS challenge, 50% inhibition compared to vehicle
Procedure: Female Balb/C mice, 6 weeks old upon arrival at animal facility, and weighing 18-20 g/mouse were used for this assay. The mice are acclimated in animal facility for 5-7 days prior experiment initiation. Mice were randomly divided into experimental groups to include several doses of test article, and vehicle and dexamethasone controls. Mice were fasted from 12 hours prior to study initiation (dosing), but allowed free access to water. Mice were dosed following study group design by oral gavage 30 min prior to LPS stimulation. Dosing interval time was 1 min/mouse.
Two hours after LPS challenge animals were anesthetized by CO2 inhalation, and blood was sampled via cardiac puncture into EDTA coated tubes and placed on ice. Plasma was separated by centrifugation at 3000 g at 4° C. for 15 min. The separated plasma was divided into aliquots (50 ul/aliquot) and stored at −80° C. until plasma IL-6 ELISA and drug levels were analyzed.

[2] = system: MYC mRNA; assay: cMyc RNA quantification assay (QuantiGene) in MV4:11 cells; format: cell-based; conditions: read-out: MYC-MV411
Procedure: MV4:11 (AML) or Raji (Burkitt's lymphoma) cells were seeded in a 96-well plate and incubated in the presence of various concentrations of compounds for 4 h. Relative mRNA levels were quantitated by using QuantiGene 2.0 assay (Affymetrix) according to the manufacturer's recommendation. Signals were detected by using an Envision plate reader (Perkin-Elmer). Biological duplicates were averaged and normalized to vehicle (DMSO) control to calculate percent MYC mRNA levels.

[3] = system: IL-6 secretion; assay: Cell-based IL-6 quantification assay (ELISA, Mesoscale) in LPS-stimulated THP-1 cells; conditions: THP-1 cells, 16 h, read-out: IL6
How it was run: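 THP-1 cells stimulated with LPS at 4 μg/mL final and exposed to compounds for 16 h. Supernatant IL-6 measured by Mesoscale ELISA and normalized to CellTiter-Glo cell content. Percent inhibition derived from that ratio.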

[4] = system: MYC mRNA; assay: cMyc RNA quantification assay (QuantiGene) in Raji cells; format: cell-based; conditions: 4 h
How it was run: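 MV4:11 or Raji cells were treated with a range of compound concentrations for 4 h. MYC mRNA was measured by QuantiGene 2.0, and biological duplicates were averaged and normalized to DMSO vehicle to give percent MYC mRNA.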

[5] = system: Myc RNA; assay: Myc RNA quantification in xenograft model; format: in vivo, NOD SCID mice; conditions: for ED50: Mus musculus, Raji, po
Procedure: Female NOD SCID mice (Harlan) were inoculated s.c. with 3×10^6 Raji cells per mouse resuspended in 10% Matrigel. Tumors were grown until they reached a size of 200 mm^3 to 400 mm^3 as measured by caliper. Mice were treated orally (5 mL/kg) with different doses of compounds prepared as a 2 mg/mL suspension of Carboxy-methyl-cellulose. At the indicated time points after treatment, tumors were harvested. RNA was isolated by using TRIzol extraction and processed for QuantiGene® Assay.

[6] = target: T1, BRD4(BD1) (Homo sapiens, UniProt O60885); assay: BRD4 AlphaLisa binding assay (Alphascreen)
T1 construct: His; made in house
How it was run: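 BRD4(BD1) (30 nM) incubated 20 min at room temperature with peptide (200 nM) and compound in 40 mM HEPES pH 7.0, 40 mM NaCl, 1 mM DTT, 0.01% BSA, 0.008% Brij-35, 1.2% DMSO.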

[7] = Homo sapiens, MV4-11, 4 h, Table 7, MV4:11 (AML) cells
[8] = Homo sapiens, THP-1, 16 h, Table 7, LPS 4 μg/mL, normalised to CellTiter-Glo
[9] = Homo sapiens, Table 7, Raji (Burkitt's lymphoma) cells
[10] = Table 6, BRD4(BD1) 30 nM, H4-tetraacetyl peptide 200 nM, read-out: BRD4 Alphascreen IC50
[11] = Table 7, LPS 4 μg/mL, normalised to CellTiter-Glo
[12] = Table 7, Raji (Burkitt's lymphoma) cells
[13] = Table 7, MV4:11 (AML) cells, 4 h
[14] = Homo sapiens, MV4-11, 4 h, Table 14, MV4:11 cells
[15] = Homo sapiens, THP-1, 16 h, Table 14, LPS
[16] = Homo sapiens, Table 14, Raji cells
[17] = Table 14, BRD4 AlphaLisa Binding Assay, read-out: Alpha screen

SMILES: Cc1noc2c1-c1sc(C)c(C)c1C(c1ccc(Cl)cc1)=N[C@H]2CC(N)=O [Compound 110, 2-((6S)-4-(4-chlorophenyl)-2,3,9-trimethyl-6H-isoxazolo[5,4-c]thieno[2,3-e]azepin-6-yl)acetamide]
- ED50 [1]: < 10 mg/kg
- IC50 [2, 7]: < 0.5 µM
- IC50 [3, 8]: < 0.5 µM
- IC50 [4, 9]: < 0.5 µM
- ED50 [5]: 20 to 50 mg/kg
- IC50 [6, 10]: < 0.5 µM

SMILES: Cc1noc2c1-c1sc(C)c(C)c1C(c1ccc(C#N)cc1)=NC2CC(=O)NCCF (centres unmarked) [Compound 114]
- IC50 [3, 8]: < 0.5 µM
- IC50 [4, 9]: < 0.5 µM
- ED50 [5]: 20 to 50 mg/kg
- IC50 [6, 10]: < 0.5 µM

SMILES: Cc1cccc2c1C(c1ccc(Cl)cc1)=NC(CC(N)=O)c1onc(C)c1-2 (centres unmarked) [Compound 128]
- ED50 (mg/kg) [1]: ++ (“++” indicates an ED50 of less than 10 mg/kg)
- IC50 [3, 11]: < 0.5 µM
- IC50 [4, 12]: < 0.5 µM
- IC50 [6, 10]: < 0.5 µM

SMILES: Cc1cccc2c1C(c1ccc(F)cc1)=NC(CC(N)=O)c1onc(C)c1-2 (centres unmarked) [Compound 129]
- ED50 [1]: < 10 mg/kg
- IC50 [3, 8]: < 0.5 µM
- IC50 [4, 9]: < 0.5 µM
- ED50 [5]: 20 to 50 mg/kg
- IC50 [6, 10]: < 0.5 µM

SMILES: Cc1cccc2c1C(c1ccc(C(F)(F)F)cc1)=NC(CC(N)=O)c1onc(C)c1-2 (centres unmarked) [Compound 132]
- ED50 [1]: < 10 mg/kg
- IC50 [2, 7]: < 0.5 µM
- IC50 [3, 8]: < 0.5 µM
- IC50 [4, 9]: < 0.5 µM
- ED50 [5]: < 20 mg/kg
- IC50 [6, 10]: < 0.5 µM

SMILES: Cc1noc2c1-c1ccccc1C(c1ccc(Cl)cc1)=N[C@H]2CC(N)=O [Compound 144]
- ED50 (mg/kg) [1]: ++ (“++” indicates an ED50 of less than 10 mg/kg)
- IC50 [2, 13]: < 0.5 µM
- IC50 [3, 11]: < 0.5 µM
- IC50 [4, 12]: < 0.5 µM
- ED50 (mg/kg) ([5]; Table 16, Raji xenograft tumors, oral treatment, Myc RNA by QuantiGene, 50% inhibition compared to vehicle): ++ (“++” indicates an ED50 of less than 20 mg/kg)

SMILES: Cc1noc2c1-c1ccccc1C(c1ccc(C#N)cc1)=N[C@H]2CC(N)=O [Compound 148]
- ED50 (mg/kg) [1]: + (“+” indicates and ED50 of between 10 and 50 mg/kg)
- IC50 [2, 13]: < 0.5 µM
- IC50 [3, 11]: < 0.5 µM
- IC50 [4, 12]: < 0.5 µM
- IC50 [6, 10]: < 0.5 µM

SMILES: CCNC(=O)C[C@@H]1N=C(c2ccc(Cl)cc2)c2c(sc(C)c2C)-c2c(C)noc21 [Compound 165, 2-((6S)-4-(4-chlorophenyl)-2,3,9-trimethyl-6H-isoxazolo[4,5-e]thieno[3,2-c]azepin-6-yl)-N-ethylacetamide]
- ED50 [1]: 10 to 50 mg/kg
- IC50 [3, 8]: < 0.5 µM
- IC50 [4, 9]: < 0.5 µM
- IC50 [6, 10]: < 0.5 µM

SMILES: CNc1nccc2c1C(c1ccc(Cl)cc1)=N[C@@H](CC(N)=O)c1onc(C)c1-2 [Compound 181, 2-((4S)-6-(4-chlorophenyl)-1-methyl-7-(methylamino)-4H-isoxazolo[5,4-c]pyrido[4,3-e]azepin-4-yl)acetamide]
- IC50 [2, 7]: < 0.5 µM
- IC50 [3, 8]: < 0.5 µM
- IC50 [4, 9]: < 0.5 µM
- IC50 [6, 10]: < 0.5 µM

SMILES: Cc1noc2c1-c1ccc(-c3ccc(N)nc3)cc1C(c1ccc(C(F)(F)F)cc1)=N[C@H]2CC(N)=O [Compound 206]
- IC50 [2, 14]: < 0.5 µM
- IC50 [3, 15]: < 0.5 µM
- IC50 [4, 16]: < 0.5 µM
- IC50 [6, 17]: < 0.5 µM

SMILES: Cc1noc2c1-c1sc(C)c(C)c1C(c1ccc(C(F)(F)F)cc1)=NC2CC(N)=O (centres unmarked) [Compound 208]
- IC50 [2, 14]: < 0.5 µM
- IC50 [3, 15]: < 0.5 µM
- IC50 [4, 16]: < 0.5 µM
- IC50 [6, 17]: < 0.5 µM

SMILES: Cc1noc2c1-c1sc(C)c(C)c1C(c1ccc(C#N)cc1)=N[C@H]2[C@@H](C)C(N)=O [Compound 209, (2R)-2-((6S)-4-(4-cyanophenyl)-2,3,9-trimethyl-6H-isoxazolo[5,4-c]thieno[2,3-e]azepin-6-yl)propanamide]
- IC50 [2, 14]: < 0.5 µM
- IC50 [3, 15]: < 0.5 µM
- IC50 [4, 16]: 0.5 to 1 µM
- IC50 [6, 17]: < 0.5 µM

SMILES: Cc1noc2c1-c1ccc(F)cc1C(c1ccc(Cl)cc1)=N[C@H]2CC(N)=O [Compound 210]
- IC50 [2, 14]: < 0.5 µM
- IC50 [3, 15]: < 0.5 µM
- IC50 [4, 16]: 0.5 to 1 µM
- IC50 [6, 17]: < 0.5 µM
